For two compounds, IC50 results are on record in US10611765B2, “Pyrrolopyrimidine derivatives as Mps1/TTK kinase inhibitors” (Ohio State Innovation Foundation, priority 2014, dated 2020).

Assay [1] relates to MDA-MB-453. Description: MTS anti-proliferative assay, MDA-MB-453. It is filed as cell-based. To be noted: Homo sapiens, 168 h, MDA-MB-453, luminal A, treatment for 7 days. How it is done:
The anti-proliferative effects and IC50 values of the compounds in the BC cell line panel were determined by MTS assay.
The media were changed every 2-days. When the cells grew to about 80% confluence, cells were washed twice with calcium- and magnesium-free phosphate-buffered saline (PBS, pH 7.4), and then trypsinized with 0.05% trypsin-5.3 mm EDTA. The trypsinization was stopped by addition of culture medium with 5% FBS.
The BC cells were seeded at the density of 1,000 cells per well (100 μL) into 96 well plate in DMEM/F-12 (1:1), supplemented with 5% (v/v) FCS and incubated overnight at 37° C. Test compounds are solubilized in dimethyl sulfoxide (DMSO), diluted in cell culture medium to a range of final assay concentrations of 1 nM to 10 μM, added to cells and incubated for 7 days at 37° C. The medium including the test compound are refreshed at days 3 and 5. The MTS assay are carried out by using the CellTiter 96® AQueous One Solution Cell Proliferation Assay kit following the manufacturer's instruction.
In general terms: Tetrazolium assays rely on reduction of a dye to a coloured formazan, in cell work by metabolically active cells.

In assay [2] the target is Mps1 (autophosphorylation) (Homo sapiens, UniProt P33981). Description: biochemical. How it is done:
Briefly, the inhibition potency to Mps1 kinase activity was determined by measurement of radioactive phosphotransfer to the specific substrate, Cetn2. The autophosphorylation of Mps1 was also measured using the same method without adding Cetn2 in the kinase assay reaction mixture. […] Mps1 activity was measured using 0.25 ng of recombinant GST-Mps1 protein in 50 mM TrisCl pH 7.5, 0.5 mM DTT, 10 mM MgCl2, 300 μM recombinant Cetn2 and 3 μM ^32P-γ-ATP. […] ATP was added to initiate the kinase assay, incubated at 30° C. for 30 min and five-fold volume of […] was added to quench the reaction. The whole reaction was immobilized on Immobilon-P^SQ PVDF membrane (Millipore) using a dot blotter connected to vacuum line. Each well was washed three times with 300 μL of PBS. The membrane was further washed by soaking in PBS, dried, and exposed overnight to a Phosphor Screen. The image was acquired by the Storm imaging system (Amersham). The density analyses were performed by using Image-J program, and kinetic constants were calculated by GraphPad Prism 5 software. Commercial kinase profiling assays were performed by Reaction Biology Corp., Malvern, Pa.

Chain of Mps1 (autophosphorylation) (P33981 whole entry): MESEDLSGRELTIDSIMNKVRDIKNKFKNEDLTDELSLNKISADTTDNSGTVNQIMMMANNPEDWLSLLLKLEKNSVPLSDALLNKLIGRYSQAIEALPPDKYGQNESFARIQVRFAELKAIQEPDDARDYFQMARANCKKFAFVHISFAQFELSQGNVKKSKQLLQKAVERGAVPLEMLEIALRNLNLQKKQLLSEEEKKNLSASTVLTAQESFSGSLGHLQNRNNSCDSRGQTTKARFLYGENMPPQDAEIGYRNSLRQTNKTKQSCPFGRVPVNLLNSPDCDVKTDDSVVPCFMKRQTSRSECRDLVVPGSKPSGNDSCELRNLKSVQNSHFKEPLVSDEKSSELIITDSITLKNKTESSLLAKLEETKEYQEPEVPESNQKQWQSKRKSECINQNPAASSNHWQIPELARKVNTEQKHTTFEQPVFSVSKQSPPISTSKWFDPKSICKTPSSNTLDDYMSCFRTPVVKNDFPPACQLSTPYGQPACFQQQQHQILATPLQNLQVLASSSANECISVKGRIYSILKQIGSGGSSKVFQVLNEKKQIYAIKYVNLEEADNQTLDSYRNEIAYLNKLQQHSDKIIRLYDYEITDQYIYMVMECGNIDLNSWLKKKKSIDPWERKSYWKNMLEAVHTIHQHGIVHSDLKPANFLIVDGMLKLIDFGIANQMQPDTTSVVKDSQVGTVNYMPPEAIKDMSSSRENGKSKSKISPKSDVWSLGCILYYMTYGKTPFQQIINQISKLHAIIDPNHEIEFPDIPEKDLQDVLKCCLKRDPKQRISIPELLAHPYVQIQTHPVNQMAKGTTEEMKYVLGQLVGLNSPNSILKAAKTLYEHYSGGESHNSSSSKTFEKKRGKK

The IC50 is the concentration at which inhibition is half-maximal. Read a low IC50 as higher potency. The compound `COc1cc(N2CCC(O)CC2)ccc1Nc1nc(Nc2ccccc2S(=O)(=O)C(C)C)c2cc[nH]c2n1` [Compound 1, 1-(4-((4-((2-(isopropylsulfonyl)phenyl)amino)-7H-pyrrolo[2,3-d]pyrimidin-2-yl)amino)-3-methoxyphenyl)piperidin-4-ol] gave an IC50 in assay [1] of 820 nM. Turning to `COc1cc(N2CCOCC2)ccc1Nc1nc(NC2CCCCC2)c2cc[nH]c2n1` [Compound 13, N4-cyclohexyl-N2-(2-methoxy-4-morpholinophenyl)-7H-pyrrolo[2,3-d]pyrimidine-2,4-diamine], the IC50 in assay [2] was 312 nM.
